Results as given in patent publication US12612386B2, “Heteroaryl-triazole compounds as pesticides” (Bayer Aktiengesellschaft, priority 2020, dated 2026).

Experiments:
Assay type in all cases: in vivo
[1] = tested on: fall armyworm larvae (Spodoptera frugiperda); assay: whole plant or invertebrate; details: 168 h
Method: Spodoptera frugiperda—Spray Test
• Solvent: 78.0 parts by weight acetone • 1.5 parts by weight dimethylformamide • Emulsifier: alkylarylpolyglycol ether
(§1) To produce a suitable preparation of active compound, 1 part by weight of active compound is mixed with the stated amount of solvents and is diluted with water, containing an emulsifier concentration of 1000 ppm, to the desired concentration. Further test concentrations are prepared by dilution with emulsifier containing water.
Maize (Zea mays) leaf sections are sprayed with a preparation of the active ingredient of the desired concentration. Once dry, the leaf sections are infested with fall armyworm larvae (Spodoptera frugiperda).
After 7 days mortality in % is determined. 100% means all caterpillars have been killed and 0% means none of the caterpillars have been killed.
Spodoptera frugiperda—Spray Test (SPODFR)
After the specified period of time, mortality in % is determined. 100% means all caterpillars have been killed and 0% means none of the caterpillars have been killed.

[2] = tested on: larvae of the banded cucumber beetle (Diabrotica balteata); assay: Diabrotica balteata spray test; details: 168 h, 100 g/ha (=32 μg/well), after 7 days, read-out: efficacy (seedling growth)
Method: Diabrotica balteata—Spray Test
(§2) • Solvent: 78.0 parts by weight of acetone • 1.5 parts by weight of dimethylformamide • Emulsifier: alkylarylpolyglycol ether
as §1, with “solvent,” for “solvents”, “and the concentrate” for “and”
Soaked wheat seeds (Triticum aestivum) are placed in a multiple well plate filled with agar and some water and are incubated for 1 day to germinate (5 seeds per well). The germinated wheat seeds are sprayed with a test solution containing the desired concentration of the active ingredient. Afterwards each unit is infected with 10-20 larvae of the banded cucumber beetle (Diabrotica balteata).
After 7 days efficacy in % is determined. 100% means all the seedlings have grown up like in the untreated, uninfected control; 0% means none of the seedlings have grown.

[3] = tested on: larvae of the southern green stink bug (Nezara viridula); assay: whole plant or invertebrate; details: 96 h
Method: Nezara viridula—Spray Test
as §2
as §1, with “solvent,” for “solvents”, “and the concentrate” for “and”
Barley plants (Hordeum vulgare) are sprayed with a test solution containing the desired concentration of the active ingredient and are infested with larvae of the southern green stink bug (Nezara viridula).
After 4 days mortality in % is determined. 100% means all the stink bugs have been killed; 0% means none of the stink bugs have been killed.

CC(NC(=O)c1cc(OC(F)(F)F)cc(S(=O)(=O)C2CC2)c1)c1ncnn1-c1cc(C#N)ncn1 (centres unmarked) [I-9]
mortality at 100 g/ha [1]: 100%

C[C@H](NC(=O)c1cc(Cl)cc(S(=O)(=O)c2ccc(Cl)cc2)c1)c1ncnn1-c1cc(C#N)ncn1 [I-11]
pest or weed control at 32 µg/disc, 100 g/ha [2]: 80% | mortality at 100 g/ha [1]: 100%

C[C@H](NC(=O)c1cc(Br)cc(OC(F)(F)F)c1)c1nc(C2CC2)nn1-c1cc(C(N)=O)ncn1 [I-13, 6-[5-[(1S)-1-[[3-bromo-5-(trifluoromethoxy)benzoyl]amino]ethyl]-3-cyclopropyl-1,2,4-triazol-1-yl]pyrimidine-4-carboxamide]
pest or weed control at 32 µg/disc, 100 g/ha [2]: 100% | mortality at 100 g/ha [1]: 100%

C[C@H](NC(=O)c1cc(OC(F)(F)F)cc(S(C)(=O)=O)c1)c1nc(C2CC2)nn1-c1cc(C#N)ncn1 [I-14]
pest or weed control at 32 µg/disc, 100 g/ha [2]: 100%

C[C@H](NC(=O)c1cc(Br)cc(OC(F)(F)F)c1)c1nc(C2CC2)nn1-c1cc(C#N)ncn1 [I-15, 3-bromo-N-[(1S)-1-[2-(6-cyanopyrimidin-4-yl)-5-cyclopropyl-1,2,4-triazol-3-yl]ethyl]-5-(trifluoromethoxy)benzamide]
pest or weed control at 32 µg/disc, 100 g/ha [2]: 100% | mortality at 100 g/ha [1]: 100%

C[C@H](NC(=O)c1cc(Br)cc(OC(F)F)c1)c1nc(C2CC2)nn1-c1cc(C#N)ncn1 [I-16]
pest or weed control at 32 µg/disc, 100 g/ha [2]: 100%

C[C@H](NC(=O)c1cc(OC(F)(F)F)cc(C2CC2)c1)c1nc(C2CC2)nn1-c1cc(C#N)ncn1 [I-17]
pest or weed control at 32 µg/disc, 100 g/ha [2]: 100%

Cc1nc([C@H](C)NC(=O)c2cc(Cl)cc(S(=O)(=O)C(F)(F)F)c2)n(-c2cc(C#N)ncn2)n1 [I-24]
pest or weed control at 32 µg/disc, 100 g/ha [2]: 100% | mortality at 100 g/ha [1]: 100%

Cc1nc([C@H](C)NC(=O)c2cc(Br)cc(OC(F)F)c2)n(-c2cc(C#N)ncn2)n1 [I-26]
pest or weed control at 32 µg/disc, 100 g/ha [2]: 100% | mortality at 100 g/ha [1]: 100%

Cc1nc([C@H](C)NC(=O)c2cc(Cl)cc(S(=O)(=O)C(F)F)c2)n(-c2cc(C#N)ncn2)n1 [I-27]
pest or weed control at 32 µg/disc, 100 g/ha [2]: 100% | mortality at 100 g/ha [1]: 100%

Cc1nc([C@H](C)NC(=O)c2cc(OC(F)(F)F)cc(S(C)(=O)=O)c2)n(-c2cc(C#N)ncn2)n1 [I-30]
mortality at 500 g/ha [3]: 100% | pest or weed control at 32 µg/disc, 100 g/ha [2]: 100% | mortality at 100 g/ha [1]: 100%

C[C@H](NC(=O)c1cc(OC(F)(F)F)cc(C2(C#N)CC2)c1)c1nc(C2CC2)nn1-c1cc(C#N)ncn1 [I-43]
pest or weed control at 32 µg/disc, 100 g/ha [2]: 80% | mortality at 100 g/ha [1]: 100%

C[C@H](NC(=O)c1cc(OC(F)(F)F)cc(S(C)(=O)=O)c1)c1nc(C2CC2)nn1-c1cc(C(N)=O)ncn1 [I-47]
pest or weed control at 32 µg/disc, 100 g/ha [2]: 100% | mortality at 100 g/ha [1]: 100%

C[C@H](NC(=O)c1cc(C#N)cc(OC(F)(F)F)c1)c1nc(C2CC2)nn1-c1cc(C#N)ncn1 [I-53]
pest or weed control at 32 µg/disc, 100 g/ha [2]: 100%

C[C@H](NC(=O)c1cc(Br)cc(C2CC2(Cl)Cl)c1)c1ncnn1-c1cc(C#N)ncn1 (some centres unmarked) [I-54]
pest or weed control at 32 µg/disc, 100 g/ha [2]: 100% | mortality at 100 g/ha [1]: 100%

CNC(=O)c1cc(-n2nc(C)nc2[C@H](C)NC(=O)c2cc(Cl)cc(S(C)(=O)=O)c2)ncn1 [I-62]
mortality at 500 g/ha [3]: 100% | mortality at 100 g/ha [1]: 83%

C[C@H](NC(=O)c1cc(OC(F)(F)F)cc(S(=O)(=O)C(F)(F)F)c1)c1ncnn1-c1cc(C#N)ncn1 [I-91]
pest or weed control at 32 µg/disc, 100 g/ha [2]: 100% | mortality at 100 g/ha [1]: 100%

Cc1nc([C@H](C)NC(=O)c2cc(F)cc(C#N)c2)n(-c2cc(C(N)=O)ncn2)n1 [I-96]
mortality at 500 g/ha [3]: 100%

Cc1nc([C@H](C)NC(=O)c2cc(OC(F)F)cc(OC(F)F)c2)n(-c2cc(C(=O)N(C)C(C)C)ncn2)n1 [I-100]
mortality at 100 g/ha [1]: 83%

C[C@H](NC(=O)c1cc(Br)cc(OC(F)F)c1)c1nc(C2CC2)nn1-c1cc(C(N)=O)ncn1 [I-104]
pest or weed control at 32 µg/disc, 100 g/ha [2]: 100% | mortality at 100 g/ha [1]: 100%

C[C@H](NC(=O)c1cc(C(F)(F)F)cc(C(F)(F)F)c1)c1nc(C2CC2)nn1-c1cc(C(N)=O)ncn1 [I-105]
pest or weed control at 32 µg/disc, 100 g/ha [2]: 100% | mortality at 100 g/ha [1]: 100%

C[C@H](NC(=O)c1cc(Cl)cc(OC(F)(F)F)c1)c1nc(C2CC2)nn1-c1cc(C(N)=O)ncn1 [I-106]
pest or weed control at 32 µg/disc, 100 g/ha [2]: 100% | mortality at 100 g/ha [1]: 100%
